Drawing on publication doi:10.1101/2025.10.27.684712v1, “Structure-guided development of a potent human B^0AT1 inhibitor effective in a mouse model of phenylketonuria” (biorxiv, 2025), this text covers IC50, Kd and Km for 4 compounds.

Experiment [1] concerns the target T1, mB^0AT1 (mouse SLC6A19) co-expressed with mouse Collectrin (Mus musculus, UniProt Q9D687).
T1 construct: mSLC6A19-T2A-mCollectrin synthetic construct, doxycycline-inducible in JTREx-CHO cells; with Collectrin
T1 sequence (Q9D687 1-634): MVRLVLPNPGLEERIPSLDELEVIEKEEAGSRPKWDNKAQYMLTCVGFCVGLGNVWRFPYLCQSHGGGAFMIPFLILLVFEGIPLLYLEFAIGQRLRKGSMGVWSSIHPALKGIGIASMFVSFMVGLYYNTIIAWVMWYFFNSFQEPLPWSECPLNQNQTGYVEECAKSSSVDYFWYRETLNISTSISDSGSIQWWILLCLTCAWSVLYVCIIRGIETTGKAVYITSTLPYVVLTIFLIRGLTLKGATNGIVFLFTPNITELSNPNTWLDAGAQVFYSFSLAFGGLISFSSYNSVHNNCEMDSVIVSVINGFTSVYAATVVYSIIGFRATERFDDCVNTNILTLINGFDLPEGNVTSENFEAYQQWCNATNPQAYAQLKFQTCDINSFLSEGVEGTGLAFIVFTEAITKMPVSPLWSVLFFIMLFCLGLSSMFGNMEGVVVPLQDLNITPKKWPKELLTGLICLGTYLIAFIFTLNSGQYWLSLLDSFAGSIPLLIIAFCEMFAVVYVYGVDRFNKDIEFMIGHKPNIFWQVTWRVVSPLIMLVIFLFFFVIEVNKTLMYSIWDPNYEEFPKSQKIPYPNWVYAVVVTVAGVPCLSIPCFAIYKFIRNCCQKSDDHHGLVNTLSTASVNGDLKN
T1 sequence (Q9ESG4 15-222 partner): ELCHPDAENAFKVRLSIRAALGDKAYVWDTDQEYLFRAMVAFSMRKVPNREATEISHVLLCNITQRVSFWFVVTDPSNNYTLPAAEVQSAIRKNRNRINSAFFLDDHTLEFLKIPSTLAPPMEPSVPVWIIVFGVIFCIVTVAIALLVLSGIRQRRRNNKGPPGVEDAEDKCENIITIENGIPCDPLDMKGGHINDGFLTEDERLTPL
Kind of experiment: inhibition of d5-phenylalanine uptake, LC-MS/MS. The experiment is classed as cell-based.

Another experiment addresses T2, hB^0AT1-ACE2 complex (Homo sapiens, UniProt Q695T7).
T2 construct: gene SLC6A19; wild type; N-terminal FLAG on B0AT1, Strep-tag after ACE2 signal peptide; FreeStyle 293-F; with Angiotensin-converting enzyme 2
Kind of experiment: binding to crude membranes, filtration and LC-MS/MS.

In experiment [2] the target is T3, hB^0AT1 (human SLC6A19) co-expressed with human Collectrin (Homo sapiens, UniProt Q695T7).
T3 construct: hSLC6A19-T2A-hCollectrin synthetic construct, wild type, doxycycline-inducible in JTREx-CHO cells; with Collectrin
T3 sequence (Q695T7 1-634): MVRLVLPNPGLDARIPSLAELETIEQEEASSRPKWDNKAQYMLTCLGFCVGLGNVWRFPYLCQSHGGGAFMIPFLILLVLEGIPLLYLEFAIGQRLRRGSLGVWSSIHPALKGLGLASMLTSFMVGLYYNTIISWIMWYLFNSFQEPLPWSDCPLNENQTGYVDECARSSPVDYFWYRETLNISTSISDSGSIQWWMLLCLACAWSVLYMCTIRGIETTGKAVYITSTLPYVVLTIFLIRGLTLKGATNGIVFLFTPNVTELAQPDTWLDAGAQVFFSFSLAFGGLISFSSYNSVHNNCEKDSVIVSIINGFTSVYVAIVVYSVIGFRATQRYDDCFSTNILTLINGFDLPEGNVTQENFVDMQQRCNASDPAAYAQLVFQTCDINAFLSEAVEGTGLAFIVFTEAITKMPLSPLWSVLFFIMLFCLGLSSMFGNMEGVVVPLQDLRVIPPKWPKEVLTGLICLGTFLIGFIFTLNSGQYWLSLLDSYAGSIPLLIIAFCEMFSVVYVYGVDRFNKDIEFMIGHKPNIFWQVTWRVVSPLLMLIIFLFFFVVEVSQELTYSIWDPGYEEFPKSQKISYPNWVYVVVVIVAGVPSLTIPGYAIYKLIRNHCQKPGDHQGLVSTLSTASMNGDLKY
T3 sequence (Q9HBJ8 15-222 partner): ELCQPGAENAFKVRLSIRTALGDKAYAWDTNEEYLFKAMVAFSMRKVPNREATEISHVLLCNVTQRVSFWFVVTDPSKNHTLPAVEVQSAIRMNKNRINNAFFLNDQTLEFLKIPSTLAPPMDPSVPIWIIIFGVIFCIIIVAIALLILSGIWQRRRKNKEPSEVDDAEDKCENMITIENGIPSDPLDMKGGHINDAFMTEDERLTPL
The experiment can be described thus: inhibition of d5-phenylalanine uptake, LC-MS/MS. The experiment is classed as cell-based.

In experiment [3] the target is T3, hB^0AT1 (human SLC6A19) co-expressed with human Collectrin. Kind of experiment: d5-phenylalanine uptake kinetics, LC-MS/MS. Conditions: labelled compound; 100 mM NaCl, pH 7.4, 37 °C, no inhibitor. The experiment is classed as cell-based.

T2 sequence (Q9BYF1 18-805 partner, one chain of several): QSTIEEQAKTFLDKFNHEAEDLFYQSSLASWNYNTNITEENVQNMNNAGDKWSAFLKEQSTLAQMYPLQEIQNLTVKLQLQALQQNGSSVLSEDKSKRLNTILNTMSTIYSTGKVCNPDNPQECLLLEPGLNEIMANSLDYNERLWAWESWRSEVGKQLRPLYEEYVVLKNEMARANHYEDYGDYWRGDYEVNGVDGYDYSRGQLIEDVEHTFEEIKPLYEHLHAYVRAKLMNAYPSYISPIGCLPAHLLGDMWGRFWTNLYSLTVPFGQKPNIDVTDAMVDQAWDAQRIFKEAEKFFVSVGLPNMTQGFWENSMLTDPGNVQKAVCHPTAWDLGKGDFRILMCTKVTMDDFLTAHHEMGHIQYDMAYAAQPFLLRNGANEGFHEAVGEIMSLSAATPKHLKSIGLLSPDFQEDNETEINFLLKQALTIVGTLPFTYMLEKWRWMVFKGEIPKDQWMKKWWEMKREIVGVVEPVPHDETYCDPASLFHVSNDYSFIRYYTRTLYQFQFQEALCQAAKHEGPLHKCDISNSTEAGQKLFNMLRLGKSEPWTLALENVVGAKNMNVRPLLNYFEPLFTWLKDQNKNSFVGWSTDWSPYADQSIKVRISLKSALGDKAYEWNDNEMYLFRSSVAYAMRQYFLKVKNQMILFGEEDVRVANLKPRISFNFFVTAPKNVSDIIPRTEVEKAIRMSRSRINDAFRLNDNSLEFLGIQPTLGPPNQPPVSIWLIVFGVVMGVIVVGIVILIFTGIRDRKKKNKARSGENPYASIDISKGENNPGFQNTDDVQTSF

As to `O=C(/C=C/c1ccc(C(F)(F)F)cc1)NCC(=O)N1CCNC(=O)C1` [compound 3], the IC50 – broadly, the concentration that gives 50% inhibition – worked out at 0.295 µM in experiment [1] and 0.513 µM in experiment [2]. For the same compound, on hB^0AT1-ACE2 complex, the Kd (as a rule, a measure of binding affinity in units of concentration) stood at 0.047 µM.
In the case of d5-phenylalanine, in experiment [3], the Km (as a rule, the concentration of substrate that gives half-maximal velocity) was determined as 866 ± 144 µM.
In the case of `CN(C)C(=O)CNC(=O)/C=C/c1ccc(C(F)(F)F)cc1` [compound 2], the IC50 in experiment [1] was 1.98 µM; in experiment [2], 5.5 µM. The compound also displayed a Kd at hB^0AT1-ACE2 complex of 0.14 µM.
Consider `CCNC(=O)/C=C/c1cccc(Br)c1` [compound 1, Cinromide], for which the IC50 is more than 10 µM in experiment [1] and 0.97 µM in experiment [2]. For the same compound, at hB^0AT1-ACE2 complex, binding was put at a Kd of 0.472 µM.
